Patent US20240287045A1, “CRYSTAL FORM OF PYRIMIDINE DERIVATIVE AND PREPARATION METHOD THEREFOR” (ZHEJIANG HISUN PHARMACEUTICAL CO., LTD., priority 2021, published 2024)

How the values were obtained:
Type in all cases: physicochemical
[1] = Fluidity test (angle of repose); settings: for fluidity / angle of repose (in words): crystal forms compared with amorphous form
Protocol: (§1) The amorphous form of the compound of formula I prepared in Preparation Example, the crystal form A of the compound of formula I prepared in Example 1, the crystal form B of the compound of formula I prepared in Example 32, the crystal form C of the compound of formula I prepared in Example 48, the crystal form D of the compound of formula I prepared in Example 51, and the crystal form E of the compound of formula I prepared in Example 54 were measured for angle of repose, and the specific results are shown in Table 8 below: […]

[2] = Granularity experiment (D50, D90); settings: for D50 / D90: granularity
Protocol: as §1, with “for granularity,” for “for angle of repose,”, “Table 7” for “Table 8”

Hygroscopicity test = settings: for Hygroscopicity: 75% RH and 25° C. for 24 h, by weighing; for hygroscopicity (in words): crystal forms compared with amorphous form
Protocol: (§2) The amorphous form of the compound of formula I prepared in Preparation Example, the crystal form A of the compound of formula I prepared in Example 1, the crystal form B of the compound of formula I prepared in Example 32, the crystal form C of the compound of formula I prepared in Example 48, the crystal form D of the compound of formula I prepared in Example 51, and the crystal form E of the compound of formula I prepared in Example 54 were placed in an environment of 75% RH and 25° C. for 24 h and then weighed to calculate the hygroscopicity, respectively.

[3] = Stability experiment: purity after 10 days of humidity, heat or light; settings: for stability compared with the amorphous form: conclusion from Table 6
Protocol: High-performance liquid chromatography (HPLC) test conditions involved in the present disclosure: the model of the liquid chromatograph was Agilent 1260; the chromatographic column was Waters XBridge C18 150*4.6 mm 3.5 μm; the detection wavelength was 234 nm; and the column temperature was 25° C.
as §2, with “75% RH, 92.5% RH, 40° C., 60° C. and light for 10 days respectively, and the X-ray powder diffraction pattern and purity” for “an environment”, “each crystal form were measured.” for “75% RH and 25° C. for 24 h and then weighed to calculate the hygroscopicity, respectively.”

SMILES	fluidity / angle of repose (in words) [1]	angle of repose ([1]; measurement 1) [°]	angle of repose ([1]; measurement 2) [°]	angle of repose ([1]; measurement 3) [°]	D50 [2] [μm]	D90 [2] [μm]	Hygroscopicity (Hygroscopicity test) [%]	hygroscopicity (in words) (Hygroscopicity test)	purity ([3]; 40° C. for 10 days)	purity ([3]; 60° C. for 10 days)	purity ([3]; 75% RH for 10 days)	purity ([3]; 92.5% RH for 10 days)	purity ([3]; Day 0)	purity ([3]; Light for 10 days)	stability compared with the amorphous form [3]	D50 relative to the crystal forms ([2]; amorphous form D50 as share of crystal forms A-E) [%]	D90 relative to the crystal forms ([2]; amorphous form D90 as share of crystal forms A-E) [%]	granularity (in words) ([2]; compared with crystal forms A-E)	D50 ([2]; listed as amorphous form) [μm]	D90 ([2]; listed as amorphous form) [μm]
C=CC(=O)Nc1cc(N2CCN(CC)C3(CC3)C2)ccc1Nc1cc(N(C)C(=O)Nc2c(Cl)c(OC)cc(OC)c2Cl)ncn1 [Crystal form A, N-(2-((6-(3-(2,6-dichloro-3,5-dimethoxyphenyl)-1-methylureido)pyrimidin-4-yl)amino)-5-(4-ethyl-4,7-diazaspiro[2.5]octan-7-yl)phenyl)acrylamide]	significantly better than the amorphous form in terms of fluidity	33.4	31.8	33.7	22.37	72.86	0.10	significantly better than the amorphous form in terms of hygroscopicity	99.83	99.81	99.85	99.83	99.87	99.87	better stability					
C=CC(=O)Nc1cc(N2CCN(CC)C3(CC3)C2)ccc1Nc1cc(N(C)C(=O)Nc2c(Cl)c(OC)cc(OC)c2Cl)ncn1 [Crystal form D, N-(2-((6-(3-(2,6-dichloro-3,5-dimethoxyphenyl)-1-methylureido)pyrimidin-4-yl)amino)-5-(4-ethyl-4,7-diazaspiro[2.5]octan-7-yl)phenyl)acrylamide]	significantly better than the amorphous form in terms of fluidity	35.6	36.2	35.1	20.98	70.49	0.16	significantly better than the amorphous form in terms of hygroscopicity	99.52	99.49	99.54	99.54	99.55	99.53	better stability					
C=CC(=O)Nc1cc(N2CCN(CC)C3(CC3)C2)ccc1Nc1cc(N(C)C(=O)Nc2c(Cl)c(OC)cc(OC)c2Cl)ncn1 [Amorphous form, N-(2-((6-(3-(2,6-dichloro-3,5-dimethoxyphenyl)-1-methylureido)pyrimidin-4-yl)amino)-5-(4-ethyl-4,7-diazaspiro[2.5]octan-7-yl)phenyl)acrylamide]	significantly larger	43.3	42.6	41.9	2.68	22.82	0.52	significantly greater	94.67	94.73	94.93	94.83	95.33	94.97		≤ 13	≤ 33	remarkably small granularity	2.68	22.82
C=CC(=O)Nc1cc(N2CCN(CC)C3(CC3)C2)ccc1Nc1cc(N(C)C(=O)Nc2c(Cl)c(OC)cc(OC)c2Cl)ncn1 [Crystal form E, N-(2-((6-(3-(2,6-dichloro-3,5-dimethoxyphenyl)-1-methylureido)pyrimidin-4-yl)amino)-5-(4-ethyl-4,7-diazaspiro[2.5]octan-7-yl)phenyl)acrylamide]	significantly better than the amorphous form in terms of fluidity	35.5	36.1	35.9	20.98	69.99	0.20	significantly better than the amorphous form in terms of hygroscopicity	99.53	99.52	99.56	99.54	99.56	99.55	better stability					
C=CC(=O)Nc1cc(N2CCN(CC)C3(CC3)C2)ccc1Nc1cc(N(C)C(=O)Nc2c(Cl)c(OC)cc(OC)c2Cl)ncn1 [Crystal form C, N-(2-((6-(3-(2,6-dichloro-3,5-dimethoxyphenyl)-1-methylureido)pyrimidin-4-yl)amino)-5-(4-ethyl-4,7-diazaspiro[2.5]octan-7-yl)phenyl)acrylamide]	significantly better than the amorphous form in terms of fluidity	34.2	35.4	33.9	21.77	70.88	0.15	significantly better than the amorphous form in terms of hygroscopicity	99.66	99.66	99.71	99.68	99.72	99.70	better stability					
C=CC(=O)Nc1cc(N2CCN(CC)C3(CC3)C2)ccc1Nc1cc(N(C)C(=O)Nc2c(Cl)c(OC)cc(OC)c2Cl)ncn1 [Crystal form B, N-(2-((6-(3-(2,6-dichloro-3,5-dimethoxyphenyl)-1-methylureido)pyrimidin-4-yl)amino)-5-(4-ethyl-4,7-diazaspiro[2.5]octan-7-yl)phenyl)acrylamide]	significantly better than the amorphous form in terms of fluidity	34.6	35.7	35.2	21.98	71.56	0.12	significantly better than the amorphous form in terms of hygroscopicity	99.69	99.72	99.75	99.73	99.75	99.73	better stability					
